Laboratory results reported in ChEMBL document CHEMBL1765018, “Inhibition of amyloid-β aggregation by coumarin analogs can be manipulated by functionalization of the aromatic center” (Bioorg Med Chem, 2011).
Active and inactive are the calls of the source. The rule behind the calls is not given here.

What was measured:
[1] = Inhibition of amyloid beta (1 to 40) monomer aggregation assessed as lag time extension by thioflavin T based fluorometric assay relative to control
[2] = Inhibition of amyloid beta (1 to 40) monomer aggregation assessed as reduction in plateau fluorescence by thioflavin T based fluorometric assay; parameters: concentration or dose not given beside the values
[3] = Inhibition of amyloid beta (1 to 40) monomer aggregation at 100 uM by thioflavin T based fluorometric assay
[4] = Inhibition of amyloid beta (1 to 40) monomer aggregation assessed as doubling in lag time by thioflavin T based fluorometric assay

Row | Compound | fold change (FC) [1] | inhibition ([2]; concentration not given here) [%] | also measured
1 | CCN(CC)c1ccc2c(C#N)c(C(C)=O)c(=O)oc2c1 | 1.8 |  | 
2 | CCN(CC)c1ccc2cc([N+](=O)[O-])c(=O)oc2c1 | 1.7 |  | 
3 | CCN(CC)c1ccc2cc(-c3nc4ccccc4s3)c(=O)oc2c1 | 1.3 | 64 | 
4 | O=c1cc(Cl)c2ccccc2o1 |  |  | inhibition [2]: inactive; Activity [3]: inactive; Activity [1]: inactive
5 | O=c1oc2ccccc2cc1-n1cc(-c2cccc3ccccc23)nn1 | 2 | 61 | Activity [4]: Active
6 | CCN(CC)c1ccc2c(C#N)c(-c3nc4ccccc4s3)c(=O)oc2c1 | 1.1 | 38 | 
7 | CCN(CC)c1ccc2c(C#N)c(N)c(=O)oc2c1 | 2.1 |  | 
8 | O=C(O)CCCC(=O)NCc1cn(-c2cc3ccccc3oc2=O)nn1 |  |  | inhibition [2]: inactive; Activity [1]: inactive
9 | CCN(CC)c1ccc2c(-c3nnn[nH]3)c(-c3nc4ccccc4s3)c(=O)oc2c1 | 1 | 96 | 
10 | O=c1cc(-n2cc(-c3ccccc3)nn2)c2ccccc2o1 | 1.4 | 73 | 

The next lines start with results.

Row | fold change (FC) [1] | inhibition ([2]; concentration not given here) [%] | Compound | also measured
11 | 1 | 87 | O=c1oc2ccccc2cc1-c1nn[nH]n1 | 
12 | 2.2 | 88 | O=c1oc2ccccc2cc1-n1cc(-c2ccccc2)nn1 | 
13 | 1 | 22 | N#Cc1cc2ccccc2oc1=O | 
